Results as given in patent US20210322622A1, “COMPOSITIONS AND METHODS FOR PREPARATION OF COMPOSITE POLYMER FILMS ON NON-CONDUCTING SUBSTRATES, INCLUDING BANDAGES, AND THEIR USE FOR TREATING WOUNDS” (The Johns Hopkins University, priority 2018, published 2021).

What was measured:
[1] = tested on: S. aureus; experiment: In vitro zone of inhibition assay of coated K-wires; type: cell-based, Staphylococcus aureus; details: 6 weeks room temperature, 6 weeks −20° C., 8 months
Text: A zone of inhibition assay was used as an additional assay to evaluate the in vitro release of antibiotic(s) from the composite coating. Tryptic soy agar bacterial plates were inoculated with S. aureus bacteria cells to yield a bacterial lawn after overnight culture. After bacterial inoculation and before culturing the plates, two identical titanium K-wires loaded with either 10 w/w % Lin, 10 w/w % Van, or 10 w/w % Dap alone, or in combination with Rif were placed in two separate areas on the plate. After culturing the plates at 37° C. for 24 hours, the antimicrobial activity of the eluded antibiotic(s) into the agar was measured as a zone of inhibition (diameter [mm]) of the bacterial growth around the K-wire.
Long-term efficacy of the antimicrobial activity was tested by storing electrospun pins at room temperature for 6 weeks, −20° C. for 6 weeks, and −80° C. for 8 months. Coated pins were protected from light during storage. These pins were then used in the same zone of inhibition assay as described hereinabove. These antimicrobial results were further confirmed with a two-week in vitro release study to determine release kinetics after storage.
Tryptic soy agar (TSA) bacterial plates were inoculated with S. aureus to yield a bacterial lawn after overnight culture. Before culturing the plates, two titanium K-wires each loaded with the same combination of antibiotics from each set were placed in two separate areas on the plate. After culturing at 37° C. for 24 hours, the zone of inhibition (ZOI) (diameter/mm) of bacterial growth were measured.

[2] = tested on: S. aureus bioluminescent strain Xen36; experiment: Mouse model of prosthetic joint infection (PJI): in vivo bioluminescence imaging and CFU; design: species or system mice; details: intravenous prophylaxis 110 mg/kg at −1 and 16 hours
Text: A previously established mouse model of a prosthetic joint infection (PJI) (Pribaz et al., 2012) was used to evaluate the efficiencies of the composite coatings in providing sustained in situ release and in vivo antimicrobial activity (FIG. 5A, FIG. 5B, FIG. 5C, FIG. 5D, FIG. 5E, FIG. 5F, FIG. 5G, FIG. 5H, FIG. 5I, FIG. 5J, FIG. 5K, and FIG. 5L). A medical-grade titanium K-wire (0.5 mm in diameter, 9 mm in length) coated with PLGA/PCL fiber coating ± antibiotics was surgically placed into the right distal femur of mice. Briefly, a medial parapatellar arthrotomy on the right knee was performed with lateral displacement of the quadriceps-patellar complex. […]
Noninvasive and longitudinal measurements of the bacterial burden were performed using in vivo bioluminescence imaging of the bioluminescent signals from live and actively metabolizing Xen36 bacteria at the site of infection in the post-operative knee joints of anesthetized mice over a 2-week course of infection using the IVIS Lumina III in vivo imaging system (PerkinElmer) on days 0, 1, 3, 5, 7, and 14. Data are presented on a color scale overlaid on a grayscale photograph of mice and quantified as maximum radiance (photons/second/cm^2/steradian) within a circular region of interest (1×10^3 pixels) using Living Image software. […]

[3] = tested on: S. aureus strain Xen36; experiment: MIC of XEN36 for each antibiotic; type: cell-based, Staphylococcus aureus; details: Staphylococcus aureus, XEN36, read-out: MIC of XEN36
Description: S. aureus strain Xen36 (PerkinElmer, Waltham, Mass.) previously derived from the clinical bacteremia isolate ATCC 49525 (Wright) was used in all experiments. (Francis et al., 2000). […] (Francis et al., 2000). Xen36 was prepared for inoculation as previously described. (Niska et al., 2013; Pribaz et al. (2012)).

[4] = In vitro release of antibiotics from PLGA/PCL composite coatings on titanium K-wires (HPLC); type: physicochemical; details: stored coated pins, two-week in vitro release
Description: The release rate of the polymer composite film was measured by HPLC. Drug release studies were conducted using coated pins created with the same loading parameters as those used for later in vivo testing (10% (w/w) drug combinations) electrospun for 60 seconds at injection rates of 0.5 mL/h from each needle. Release rate of antibiotics from the composite polymer coating was characterized by placing coated pins in 200 μL pH 7.4 PBS buffer and incubating at 37° C. in an aluminum film-covered incubator to prevent possible light-induced drug degradation. Release media was changed at fixed time points over a period of two weeks and stored in a −20° C. freezer until analysis. Drug concentrations in release media for each day were determined via reverse-phase HPLC using a C-18 column in an Alliance HPLC system and Waters 2996 PDA detector. The mobile phase was a mixture of acetonitrile and water both mixed with 0.1% TFA acid, which was run at a gradient from (15%/85%) to (40%/60%) for a total runtime of 15 minutes per sample for the elution of Van/Rif and Lin/Rif drug loading groups. Elution of the Dap/Rif loading group was conducted using a mobile phase of (49%/51%) of acetonitrile and water both mixed with 0.1% TFA acid for a total run time of 11 minutes per sample. Concentrations of the drugs were quantified using wavelengths of 343 nm for Rif, 254 nm for Lin, 280 nm for Van and 223 nm for Dap using prepared standard curves for all three drugs. […] Quantification was performed through the derivatization of Gentamicin with ninhydrin at 95° C. for 15 minutes and detection with a Biotek Synergy2 plate reader.
Long-term efficacy of the antimicrobial activity was tested by storing electrospun pins at room temperature for 6 weeks, −20° C. for 6 weeks, and −80° C. for 8 months. Coated pins were protected from light during storage. These pins were then used in the same zone of inhibition assay as described hereinabove.
Drug release studies were conducted using coated pins created with the same loading parameters as detailed above. Release kinetics of antibiotics from the composite coating were characterized by placing coated pins in 200 μL of phosphate buffer saline (PBS, pH 7.4) at 37° C. Release media was changed daily over a period of two weeks and stored at −20° C. until analysis. Drug concentrations in release media were measured on days 1, 2, 3, 5, 7, 10 and 14 using a Waters Alliance 2690 HPLC system (Waters Corporation, Milford, Mass.) equipped with an Accucore RP-MS C18 column (100 mm×2.1 mm; Thermo Fisher Scientific) and a Waters 2996 PDA detector. The elution was carried out with a mobile phase of water and acetonitrile both mixed with 0.1% TFA at a flow rate of 1 mL/min at ambient temperature using a linear gradient elution program of 85% water to […] in 15 minutes. Concentrations of the drugs were quantified using wavelengths for Van (280 nm), Lin (254 nm), Dap (224 nm) and Rif (263 nm).

CN[C@H](CC(C)C)C(=O)N[C@H]1C(=O)N[C@@H](CC(N)=O)C(=O)N[C@H]2C(=O)N[C@H]3C(=O)N[C@H](C(=O)N[C@H](C(=O)O)c4cc(O)cc(O)c4-c4cc3ccc4O)[C@H](O)c3ccc(c(Cl)c3)Oc3cc2cc(c3O[C@@H]2O[C@H](CO)[C@@H](O)[C@H](O)[C@H]2O[C@H]2C[C@](C)(N)[C@H](O)[C@H](C)O2)Oc2ccc(cc2Cl)[C@H]1O [Van, vancomycin]
antimicrobial activity (zone of inhibition) after storage versus freshly prepared coatings [1]: no significant loss of antimicrobial activity | BLI signals [2]: decreased BLI signals | CFU from bone/joint tissue and implants [2]: the infection was not cleared as CFU were readily detected | MIC [3]: 0.5 µg/mL | release kinetics after storage [4]: no difference in the release kinetics
